By MIC is commonly meant the least concentration at which growth counts as inhibited.

What all share (type): cell-based
The subject of one test is EMRSA 16. Kind of test: MIC assay, EMRSA 16. Particulars: Staphylococcus aureus. Here is the method:
(§1) The antimicrobial activity of a selection of compounds were evaluated in a Gram-negative, Gram-positive and multi-resistant bacteria using the standard minimum inhibitory concentration (MIC) assay for an overnight (16-20 hour) incubation period. Commercially marketed antibiotics (Table 3) were used as positive controls during the study.
(§2) Mueller-Hinton broth (MH Broth) (Sigma-Aldrich; Millipore, cat. no. 70192) and Mueller-Hinton agar (MHA) (Sigma-Aldrich; Millipore, cat. no. 70191) were prepared as per manufacturer's instructions and sterilized by autoclaving. Approximately 20 mL of MHA was poured onto 15×100 mm petri dishes and allowed to set. Agar plates were then stored in plastic bags in an inverted position at 4° C.
(§3) Bacterial strains were provided in the form of a glycerol stock, stored at −80° C. For the purpose of preparation of bacterial suspension, appropriate strains were removed from −80° C. storage onto dry ice and not allowed to freeze-thaw.
(§4) Stock solutions of 16, 45 and 73 were provided in DMSO at 1.28 mg/mL concentration. From this stock solution, working solutions of the desired concentration were prepared by diluting with MHB.
(§5) MIC assay methodology was adapted from previously published work.
(§6) Bacterial isolate to be tested was streaked onto a nutrient-rich MH agar plate and incubated overnight at 37° C. in order to obtain single colonies.
(§7) After overnight incubation, single colonies with the same morphological appearance were chosen from the agar plate. These were touched using a sterile loop and transferred into a tube containing 10 mL of a MH broth. They were then mixed using vortex mixer and incubated at 35-37° C. in a shaker at 200 r.p.m. overnight.
(§8) Determination of OD600 and cfu/mL count OD600 (the optical density of a sample measured at a wavelength of 600 nm) of the overnight culture was measured. Because of the loss of linearity at OD600 values […], it was necessary to dilute the sample until the OD600 value was below 1.0. For all tested bacteria, a dilution of 1:10 was appropriate (100 μL in 900 μL broth).
(§9) The overnight culture was then diluted 1:100 using sterile tubes and MH broth (dilution: 10^−2). Serial dilution was then performed six times until dilution of 10^−8 was reached. 100 μL of dilutions 10^−7 and 10^−8 were plated onto MH agar plates in triplicate using a sterile cell spreader and incubated overnight at 37° C.
(§10) After overnight incubation, colonies on plates were counted and cfu per mL calculated. The following formula was applied: […]
(§11) After overnight incubation, the OD600 was measured and the overnight culture was diluted accordingly to obtain 1×10^8 cfu/mL. […]
(§12) The 96-well plates were read using a SpectraMax plate reader at an absorbance of 600 nm. […]

The subject of a further test is A431 (Skin). In words: In vitro cytotoxicity, MTT assay, A431. Particulars: Homo sapiens, read-out: Cytotoxicity. The procedure:
(§13) The in vitro cytotoxicity of a selection of compounds were evaluated in a panel of cell lines using the standard MTT assay for a 72 hour incubation period (Table 2). Free payloads produced cytotoxicities in the nanomolar range.
(§14) Tumor cell lines were maintained in RPMI1640 medium supplemented with 10% heat-inactivated fetal bovine serum, 2 mM L-glutamine and 1 mM sodium pyruvate. 1800 cells per well were seeded in a volume of 180 μl in a 96-well flat bottom polystyrene plate. The cells were allowed to adhere overnight at 37° C. in a CO2 incubator. Ligands were initially formulated in DMSO, and stocks stored at −80° C. They were then further formulated at lox concentration in RPMI1640 medium. 20 ul of diluted samples were added into each treatment well. On each plate, blank wells with no cells, and untreated wells containing cells, were included. Plates were then cultured at 37° C. in a CO2 incubator for 72 hrs. Cytotoxicity was evaluated using a tetrazolium salt-based assay, the MTT assay. After 72 hours, the supernatant was removed from each well and 200 μl of a sterile filtered 500 μg/ml MTT solution in water added to each well. The plates were then incubated at 37° C. in a CO2 incubator for 4 hrs. The supernatant was then removed and the formazan crystals formed solubilized by adding 150 μl of DMSO to each well. The plate was then read on a plate reader at 540 nm, and percentage cell survival calculated as follows: ((mean absorbance treated wells at concentration x−mean absorbance blank wells)+(mean absorbance untreated wells at concentration x−mean absorbance blank wells))×100. Data were plotted as concentration in nM vs. % cell survival in Microsoft Excel, and IC50 values (concentration where cell survival is reduced by a half) were determined from the graph.
A general note: Tetrazolium dyes change colour on reduction, which living cells bring about.

The test system of the next test is REH (ALL). Kind of test: In vitro cytotoxicity, MTT assay, REH. Particulars: read-out: Cytotoxicity. Here is the method:
as §13, §14

Another test relates to U138-MG (Glioblastoma). Kind of test: In vitro cytotoxicity, MTT assay, U138-MG. Particulars: Homo sapiens, read-out: Cytotoxicity. The procedure: as §13, §14
A further test relates to E. coli K12. In words: MIC assay, E. coli K12. Particulars: Escherichia coli, K12, E. coli K12 (Gram-negative), overnight (16-20 hour) incubation. The procedure: as §1, §2, §3, §4, §5, §6, §7, §8, §9, §10
For the generation of overnight cultures to be used for preparation of the bacterial suspension for MIC tests, a single colony of bacteria was selected using a sterile loop and a sterile tube with MH broth was inoculated followed by overnight incubation at […] in a shaker set to 200 r.p.m.
After overnight incubation, the OD600 was measured and the overnight culture was diluted accordingly to obtain 1×10^8 cfu/mL.
Free payload dilutions were prepared as per Table 4.
96-well sterile microtiter plates were used for MIC assay. The plate was filled with the respective free payload or positive control antibiotic concentrations in triplicate. 100 μL of broth was pipetted in the sterility control well (SC, column 12) and 50 μL in the growth control well (GC, column 11).
1×10^8 cfu/mL bacterial suspension was diluted 1:100 and 50 μL added to each well apart from SC. […]
as §12

The test system of test [1] is Klebsiella pneumoniae KP4631. In words: MIC assay, Klebsiella pneumoniae KP4631. Here is the method:
as §1, §2, §3, §4, §5, §6, §7, §8, §9, §10, §11, §12

Setting [2] is: A-431, A431 (Skin), MTT, 72 hour incubation.
Setting [3] is: REH (ALL), MTT, 72 hour incubation.
Where [4] appears, read: U138-MG (Glioblastoma), MTT, 72 hour incubation.

Values after ≈ are worked out from the molar mass of the structure shown. Where two headings read alike, the source gives them in different places. Where only a bound is given, the exact number is not on record here.

`CN[C@H](CC(C)C)C(=O)N[C@H]1C(=O)N[C@@H](CC(N)=O)C(=O)N[C@H]2C(=O)N[C@H]3C(=O)N[C@H](C(=O)N[C@H](C(=O)O)c4cc(O)cc(O)c4-c4cc3ccc4O)[C@H](O)c3ccc(c(Cl)c3)Oc3cc2cc(c3O[C@@H]2O[C@H](CO)[C@@H](O)[C@H](O)[C@H]2O[C@H]2C[C@](C)(N)[C@H](O)[C@H](C)O2)Oc2ccc(cc2Cl)[C@H]1O` [Vancomycin, reference compound]: in the test with EMRSA 16 (EMRSA 16 (Gram-positive), overnight (16-20 hour) incubation, read-out: MIC), the minimum inhibitory concentration (MIC) stood at 1 µg/mL (≈ 0.69 µM).

Regarding `COc1cc2c(cc1OCCCC(=O)Nc1cc(C(=O)Nc3ccc(-c4cc(C(=O)Nc5ccc(N)cc5)n(C)c4)cc3)n(C)c1)NC[C@@H]1Cc3ccccc3N1C2=O` [Compound 106, (S)—N-(4-Aminophenyl)-4-(4-(4-(4-((8-methoxy-6-oxo-11,12,12a,13-tetrahydro-6H-benzo[5,6][1,4]diazepino[1,2-a]indol-9-yl)oxy)butanamido)-1-methyl-1H-pyrrole-2-carboxamido)phenyl)-1-methyl-1H-pyrrole-2-carboxamide], the figures for the IC50 with A431 (Skin) (setting [2]), with REH (ALL) (setting [3]) and in the test on U138-MG (Glioblastoma) (setting [4]) were 26.7 nM, 24 nM and 84 nM, respectively.

As to `NC[C@H]1O[C@H](O[C@H]2[C@H](O)[C@@H](O[C@H]3O[C@H](CO)[C@@H](O)[C@H](N)[C@H]3O)[C@H](N)C[C@@H]2N)[C@H](O)[C@@H](O)[C@@H]1O` [Kanamycin, reference compound], in the test on E. coli K12 (read-out: MIC), the minimum inhibitory concentration (MIC) was 2 to 4 µg/mL (≈ 4.13 to 8.26 µM).

As for `COc1cc2c(cc1OCCCC(=O)Nc1cc(C(=O)Nc3ccc(-c4cc(C(=O)Nc5ccccc5)n(C)c4)cc3)n(C)c1)NC[C@@H]1CCCCN1C2=O` [Compound 67, (S)-4-(4-((2-Methoxy-12-oxo-5,6,6a,7,8,9,10,12-octahydrobenzo[e]pyrido-[1,2-a][1,4]diazepin-3-yl)oxy)butanamido)-1-methyl-N-(4-(1-methyl-5-(phenylcarbamoyl)-1H-pyrrol-3-yl)phenyl)-1H-pyrrole-2-carboxamide], the IC50 with A431 (Skin) (A-431, 72 h) stood at 25.9 nM; with REH (ALL) (72 h) it was 29.4 nM; in the test on U138-MG (Glioblastoma) (U138-MG, 72 h) it was 57.2 nM.

With `COc1cc2c(cc1OCCCC(=O)Nc1cc(C(=O)Nc3ccc(-c4cc(C(=O)Nc5ccc(NC(C)=O)cc5)n(C)c4)cc3)n(C)c1)NC[C@@H]1CCCCN1C2=O` [Compound 70, (S)—N-(4-Acetamidophenyl)-4-(4-(4-(4-((2-methoxy-12-oxo-5,6,6a,7,8,9,10, 12-octahydrobenzo[e]pyrido[1,2-a][1,4]diazepin-3-yl)oxy)butanamido)-1-methyl-1H-pyrrole-2-carboxamido)phenyl)-1-methyl-1H-pyrrole-2-carboxamide], the figures for the IC50 in the test with A431 (Skin) (setting [2]), with REH (ALL) (setting [3]) and with U138-MG (Glioblastoma) (setting [4]) were 11.3 nM, 42.5 nM and 93.6 nM, respectively.

With Gentamicin [reference compound], the minimum inhibitory concentration (MIC) in test [1] (Klebsiella pneumoniae KP4631 (multi-resistant), overnight (16-20 hour) incubation) is 1 to 2 µg/mL.

As for `COC(=O)c1nc2cc(NC(=O)c3nc(NC(=O)CCCOc4cc5c(cc4OC)C(=O)N4CCCC[C@H]4CN5)cn3C)ccc2o1` [Compound 61, Methyl (S)-5-(4-(4-((2-methoxy-12-oxo-5,6,6a,7,8,9,10,12-octahydrobenzo[e]pyrido[1,2-a][1,4]diazepin-3-yl)oxy)butanamido)-1-methyl-1H-imidazole-2-carboxamido)benzo[d]oxazole-2-carboxylate], the IC50 in the test with A431 (Skin) (setting [2]), in the test on REH (ALL) (setting [3]) and in the test with U138-MG (Glioblastoma) (setting [4]) was greater than 1000 nM throughout.

Take `COC(=O)c1cc(-c2ccc(NC(=O)c3cc(NC(=O)CCCOc4cc5c(cc4OC)C(=O)N4Cc6ccccc6C[C@H]4CN5)cn3C)cc2)cn1C` [Compound 121, Methyl (S)-4-(4-(4-(4-((2-methoxy-14-oxo-5,6,6a,7,12,14-hexahydrobenzo-[5,6][1,4]diazepino[1,2-b]isoquinolin-3-yl)oxy)butanamido)-1-methyl-1H-pyrrole-2-carboxamido)phenyl)-1-methyl-1H-pyrrole-2-carboxylate]: the IC50 with A431 (Skin) (setting [2]) was 13.4 nM; in the test with REH (ALL) (setting [3]) it was 11.6 nM; with U138-MG (Glioblastoma) (setting [4]) it was 43.8 nM.

For `COC(=O)c1cc(-c2ccc(NC(=O)c3cc(NC(=O)CCCOc4cc5c(cc4OC)C(=O)N4CCCC[C@H]4CN5)cn3C)cc2)cn1C` [Compound 45, Methyl (S)-4-(4-(4-(4-((2-methoxy-12-oxo-5,6,6a,7,8,9,10,12-octahydrobenzo[e]pyrido[1,2-a][1,4]diazepin-3-yl)oxy)butanamido)-1-methyl-1H-pyrrole-2-carboxamido)phenyl)-1-methyl-1H-pyrrole-2-carboxylate], the minimum inhibitory concentration (MIC) was greater than 128 µg/mL against E. coli K12; 0.5 µg/mL (≈ 0.732 µM) with EMRSA 16; greater than 128 µg/mL in test [1] (Klebsiella pneumoniae, KP4631).

`COc1cc2c(cc1OCCCC(=O)Nc1cc(C(=O)Nc3ccc(-c4cc(C(=O)Nc5ccc(N)cc5)n(C)c4)cc3)n(C)c1)NC[C@@H]1Cc3ccccc3CN1C2=O` [Compound 119, (S)—N-(4-Aminophenyl)-4-(4-(4-(4-((2-methoxy-14-oxo-5,6,6a,7,12,14-hexahydrobenzo[5,6][1,4]diazepino[1,2-b]isoquinolin-3-yl)oxy)butanamido)-1-methyl-1H-pyrrole-2-carboxamido)phenyl)-1-methyl-1H-pyrrole-2-carboxamide]: the IC50 in the test on A431 (Skin) (setting [2]) is 43.1 nM; in the test on REH (ALL) (setting [3]), 173 nM; in the test with U138-MG (Glioblastoma) (setting [4]) it was 266 nM.

For the origin of these results see patent US20210371413A1, “POLYCYCLIC AMIDES AS CYTOTOXIC AGENTS” (FEMTOGENIX LIMITED, priority 2018, published 2021).
